The nature of the data set: Qualitative solubility/crystallisation tests on 15 mg scale. The format is physicochemical.

SMILES strings stand for the structures.

Take `CO/N=C1/C[C@@H](CO)N(C(=O)c2ccc(-c3ccccc3C)cc2)C1` [(3Z,5S), (3Z,5S)-5-(hydroxymethyl)-1-[(2′-methyl-1,1′-biphenyl-4-yl)carbonyl]pyrrolidin-3-one-O-methyloxime]: the “Dissolves in” value (solvent DIPE, hot) amounted to 40 vol hot; the “Dissolves in” value (solvent IPA, hot) was 4 vol hot; the “Dissolves in” value (solvent MIBK, hot) was found to be 4 vol hot; the “Dissolves in” value (solvent THF, cold) came out at 4 vol cold; the “Dissolves in” value (solvent tBuOH, hot) was determined as 6 vol hot; the “Dissolves in” value (solvent toluene, cold) is recorded as 2 vol cold.

The record behind these values is patent US9962367B2, “Oral formulations of pyrrolidine derivatives” (ObsEva S.A., priority 2013, dated 2018).
